Assays:
Format in all cases: functional
[1] = Antiplatelet activity in Sprague-Dawley rat platelet-rich plasma assessed as minimum drug level causing inhibition of arachidonic acid-induced platelet aggregation administered 2 mins before arachidonic acid challenge by modified smear method
[2] = Antiplatelet activity in Sprague-Dawley rat platelet-rich plasma assessed as minimum drug level causing inhibition of ADP-induced platelet aggregation administered 2 mins before ADP challenge by modified smear method
[3] = Antiplatelet activity in Sprague-Dawley rat platelet-rich plasma assessed as minimum drug level causing inhibition of collagen-induced platelet aggregation administered 2 mins before collagen challenge by modified smear method

## CC(=O)Oc1ccccc1C(=O)O [ASPIRIN]
[1]
  Activity: 50 µg/mL
[2]
  Activity: 1000 µg/mL
[3]
  Activity: 250 µg/mL

## COc1ccc(Cc2nccc3cc(OC)c(OC)cc23)cc1OC [PAPAVERINE]
[1]
  Activity: 10 µg/mL
[2]
  Activity: 100 µg/mL
[3]
  Activity: 25 µg/mL
